Test results from patent US6395745B1, “Alkaloid halide salts of swainsonine and methods of use” (priority 1997, dated 2002).

Assays:
[1] = Solubility in distilled water at room temperature; assay type: physicochemical
Protocol: The melting point of the clear swainsonine hydrochloride crystal (prism) was 190-191° C. The solubility of swainsonine hydrochloride in distilled water at room temperature was about 3 g/ml, in contrast to the solubility of swainsonine free base, which is about 0.8 g/ml (see Table 5).

[2] = target: T1, purified rat liver Golgi mannosidase II (Rattus norvegicus, UniProt P28494); assay: Inhibition of purified Golgi mannosidase II in vitro (p-nitrophenyl mannopyranoside); assay type: biochemical; conditions: pH 5.6, 60 minutes at 37° C.
T1 construct: 15 μl of purified rat liver Golgi mannosidase II; from tissue; host or cells: rat liver
T1 sequence (P28494 1-1148): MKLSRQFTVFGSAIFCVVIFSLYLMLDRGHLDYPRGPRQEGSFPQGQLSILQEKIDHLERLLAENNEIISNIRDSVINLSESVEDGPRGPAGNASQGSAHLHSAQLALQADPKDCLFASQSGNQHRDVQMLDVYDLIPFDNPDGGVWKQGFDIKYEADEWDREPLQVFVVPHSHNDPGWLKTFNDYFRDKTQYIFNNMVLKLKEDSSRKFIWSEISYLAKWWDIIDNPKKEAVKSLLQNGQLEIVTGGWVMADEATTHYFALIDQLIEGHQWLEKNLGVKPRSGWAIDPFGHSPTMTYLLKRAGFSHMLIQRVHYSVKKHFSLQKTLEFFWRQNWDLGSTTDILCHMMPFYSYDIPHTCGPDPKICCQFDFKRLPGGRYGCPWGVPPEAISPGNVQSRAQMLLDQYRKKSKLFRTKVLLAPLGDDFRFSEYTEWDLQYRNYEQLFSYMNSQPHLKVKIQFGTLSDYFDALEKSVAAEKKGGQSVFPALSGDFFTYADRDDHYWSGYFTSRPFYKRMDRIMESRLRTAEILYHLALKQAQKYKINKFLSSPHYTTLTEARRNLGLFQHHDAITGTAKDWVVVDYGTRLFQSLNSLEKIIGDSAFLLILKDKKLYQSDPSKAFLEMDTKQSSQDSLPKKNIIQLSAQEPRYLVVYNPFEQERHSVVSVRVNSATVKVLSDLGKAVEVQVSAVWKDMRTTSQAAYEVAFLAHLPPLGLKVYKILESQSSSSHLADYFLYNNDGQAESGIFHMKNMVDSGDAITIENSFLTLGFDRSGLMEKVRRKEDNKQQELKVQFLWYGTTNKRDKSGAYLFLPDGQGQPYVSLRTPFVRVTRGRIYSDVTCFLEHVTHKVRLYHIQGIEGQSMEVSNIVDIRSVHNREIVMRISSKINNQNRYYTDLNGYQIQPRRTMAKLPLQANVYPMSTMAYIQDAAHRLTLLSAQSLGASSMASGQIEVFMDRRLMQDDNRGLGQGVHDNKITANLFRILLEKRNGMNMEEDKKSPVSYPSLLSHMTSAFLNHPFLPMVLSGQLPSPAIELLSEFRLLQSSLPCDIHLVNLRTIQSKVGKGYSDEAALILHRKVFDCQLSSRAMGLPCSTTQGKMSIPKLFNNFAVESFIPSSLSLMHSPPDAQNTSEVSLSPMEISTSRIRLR
Protocol: The test compound swainsonine is prepared by 0.4 serial dilution of a 40 μM stock. Present in each determination is 10 μl diluted test compound, 25 μl of 10 mM paranitrophenyl mannopyranoside, 200 mM sodium acetate, pH 5.6 and 15 μl of purified rat liver Golgi mannosidase II. After incubating the reaction for 60 minutes at 37° C., the reaction is quenched with 50 μl of 0.5 M sodium carbonate. Absorption is read at […]. After subtracting the blank from positive controls and samples, the samples are normalized against the positive control mean using a variable slope, sigmoidal curve fit, with bottom=0, top=100. The signal is proportional to the amount of products from the uninhibited reaction.

[3] = tested on: SP1.A3a mouse mammary carcinoma cells; assay: Growth factor dependent proliferation of SP1.A3a cells in vitro (tritiated thymidine); assay type: cell-based; conditions: 0.2 μg/ml, FIG. 7
Protocol: SP1.A3a mouse mammary carcinoma cells were grown for 24 hours in culture medium containing 10% bovine serum, with and without swainsonine hydrochloride at a concentration of 0.2 μg/ml. In the following 24 hours cells were maintained in serum-free medium (SFM) with and without swainsonine hydrochloride. Cells were then grown in the absence of growth factors for 6 hours, or exposed to one of the following growth factors: TNFα (tumor necrosis factor-α), TGFβ1 (transforming growth factor-β), TGFα, platelet-derived growth factor (PDGF), epidermal growth factor (EGF). Tritiated thymidine was added for a final 18 hours, cells were harvested using a multiple-cell harvester and radioactivity was measured in a β-counter as a measure of cell proliferation.

[4] = tested on: SP1.A3a mouse mammary adenocarcinoma; assay: SP1.A3a tumor growth in mice, Alzet mini-osmotic pump; assay type: in vivo, CBA/J mice; conditions: for difference in mean tumour volume between control and treatment groups: 0.5 mg/kg/day via osmotic pump over 28 days
Protocol: A metastatic subclone of the SP1 tumor line (A3a), mouse mammary adenocarcinoma was maintained in exponential growth in RPMI 1640 containing 10% FBS. The cells were harvested and resuspended at 1×10^6/ml or 1×10^7/ml in PBS and 0.1 ml containing 1×10^5 injected S.C. into the right flank of 7 week old female CBA/J mice (Jackson Laboratories). Alzet mini-osmotic pumps were implanted subcutaneously, on the opposite side of anesthetized animals. The pumps were primed to deliver saline (control) or 0.5 mg/kg/day of swainsonine hydrochloride over 28 days. Mice were monitored for the appearance of a palpable tumour and subsequent tumor growth was measured using bernier callipers. Tumor weights and the number of lung metastasis were measured on day 42.

[5] = tested on: SP1.A3a mouse mammary adenocarcinoma; assay: SP1.A3a tumor growth in mice, oral administration in drinking water; assay type: in vivo, CBA/J mice
Protocol: The experiment was repeated using swainsonine hydrochloride administered in drinking water. SP1.A3a mouse mammary adenocarcinoma were maintained in exponential growth in RPMI 1640 medium containing 10% FBS. The cells were harvested and re-suspended at 3×10^5/ml in PBS and 0.1 ml containing 3×10^4 cells injected S.C. into the right flank of 7 week old female CBA/J mice (Jackson Laboratories) (n=25). The mice were subsequently supplied with drinking water alone (n=13) or drinking water containing 10 μg/ml swainsonine hydrochloride (n=12) (equivalent to a dose of 2 mg/kg/day).
Once a palpable tumor was evident, tumor size was measured twice a week using vernier callipers. At the end of the treatment period the tumors were excised and weighed.

Cl.O[C@H]1[C@H]2[C@H](O)CCCN2C[C@@H]1O [swainsonine hydrochloride, (−)-(1S,2S,8R,8aR)-1,2,8-trihydroxyoctahydro-indolizidine hydrochloride salt]
solubility in distilled water at room temperature ([1]; Table 5): 3 g/mL | solubility in distilled water at room temperature ([1]; distilled water, room temperature): about 3 g/ml | IC50 [2]: 68 ± 21 nM | TGF-β1 and TNF-α dependent growth stimulation of SP1.A3a cells [3]: suppresses | difference in mean tumour volume between control and treatment groups ([4]; day 29 as printed): 27% | difference in mean tumour volume between control and treatment groups ([4]; day 32): 35% | difference in mean tumour volume between control and treatment groups ([4]; day 42): 32% | mean tumour weight ([4]; 0.5 mg/kg/day via osmotic pump, 42 day sacrifice, control 7.35 g): 4.87 g | incidence of lung metastasis, average ([4]; 0.5 mg/kg/day via osmotic pump, day 42 sacrifice, control 1.8): 0.25 nodules/mouse | tumor growth versus control mice ([5]; 10 μg/ml in drinking water (2 mg/kg/day), FIG. 9): slower growing tumors | mean tumor weight ([5]; 10 μg/ml in drinking water, at 31 days, untreated 3.33 g): 1.79 g
